From a melting point compilation (Tetko et al.; mined from patent text by program, amines drawn as free bases though some values may be those of a salt)

Compound	melting point [°C]
C#CCCC(=O)N1c2ccccc2C(=O)Nc2cccnc21	179 to 180
C=CCOc1ccc2c(c1)c(-c1cc3cccnc3n1S(=O)(=O)c1ccc(C)cc1)cn2C	257 to 259
Cc1cc(F)c(-n2c(=O)oc3c(c2=O)CCC3)cc1OC(C)C	131 to 133
CCCCOc1c(CO)n(CC(C)C)c(=O)c2ccc(OCc3ccccc3)cc12	90 to 91
CNc1nc(SCc2ccc(OC)cc2)nc(N2CCOCC2)c1N	79.5 to 84
Cc1cccc(-c2nsc(C(=O)O)c2C(=O)O)c1	166 to 167
CCC1c2ncn(C)c2CCN1C(=S)NC(C)C (centres undefined)	186
FC(F)Sc1ccc(-c2ccccc2)cc1	56 to 57
Cc1nn(-c2c(Cl)cc(C(F)(F)F)cc2Cl)nc1S	86 to 89
Oc1ccc(Oc2cccc(Cl)n2)cc1	125 to 130
O=c1oc(-c2ccc(OCc3cccnc3)cc2)cc(O)c1SCCc1ccccc1	178 to 179
NCCOC(c1ccccc1)(c1ccccc1)c1ccccc1	87 to 89
O=C(O)c1ccc2nc3c(c(=O)n2c1)CCC3=Cc1ccccc1	153 to 154
CCCc1c(OCCCOc2cc(O)c(-c3cocn3)cc2CC)cccc1Oc1ccccc1C(=O)O	60 to 61
CCOC(=O)C1(C(=O)OCC)N(c2ccccc2)C(=O)CC1(C)O (centres undefined)	98 to 99
NS(=O)(=O)c1cc2c(s1)SC(CC(=O)O)C(=O)N2 (centres undefined)	240
Cc1cc(Br)cnc1CCCCNC1=NS(=O)(=O)N=C1N	219 to 220
OP(O)C(NC(c1ccccc1)c1ccccc1)c1c[nH]c2ccccc12 (centres undefined)	154
CC1=C(C(=O)OC(C)C)C(c2cccc([N+](=O)[O-])c2)n2c(cc(=O)n2S(=O)(=O)c2ccccc2)N1 (centres undefined)	187 to 188
CN(C)C=C1C(=O)N(c2cccc(O)c2)c2ccccc21	200 to 203
Cc1c(Cl)ccc2c1[nH]c1c(CO)cccc12	187
O=C(O)c1cccc(-c2ccc3c(c2)N(c2ccc(Cl)cc2Cl)CCO3)c1	222 to 223
N#Cc1cc(N)ccc1N1CCC(N2CCOCC2)CC1	84 to 86
CC(=O)NCC1CN=C(c2ccccc2F)c2cc(Cl)ccc2N1C(C)=O (centres undefined)	213 to 215
Cc1ccc2nc(-c3cccnc3N)n(-c3ccc(CC(=O)c4ccccc4)cc3)c2n1	194 to 196

Compound	melting point [°C]
CC(C)CCCC(C)C1CCC2C3CC=C4CC(OCCCCCCO)CCC4(C)C3CCC12C (centres undefined)	75.9 to 81
CC(C)c1nc(CO)n(Cc2ccccc2[N+](=O)[O-])c1Sc1cc(Cl)cc(Cl)c1	160 to 166
C=C1CC2C(CCC3(C)C2CCC3(OC(=O)CCCCC)C(C)=O)C2(COC(C)=O)CCC(=O)C=C12 (centres undefined)	111 to 112
CCCCN1C(N)=NS(=O)(=O)N=C1Oc1cccc(C)c1	208 to 213
CC(=O)Nc1ccc(S(=O)(=O)NCc2noc(-c3c4ccccc4nn3CCn3ccnc3)n2)cc1	160 to 161
CCc1ccc(C(=O)CCCSc2nnnn2C)cc1	68 to 69
COc1cc2ncnc(Nc3cc(Cl)cc(N=[N+]=[N-])c3)c2cc1OC	205 to 206
Cn1cc(C(=O)O)c(=O)c2cc(F)c(F)c(F)c21	255 to 258
CNC(=O)c1ccc(C=CC(=O)NCC(=O)N(C)c2ccc(C)c(CCl)c2C)cc1	232
CCCCc1nc(C2CCCCC2)nn1Cc1ccc(-c2ccccc2-c2nnn[nH]2)cc1	125 to 127
Cn1nc(C(F)(F)F)c(CS(=O)(=O)C2=NOC(C)(C)C2)c1OC1CCCC1	113 to 114
O=C=Nc1ccc(OCc2nc(Cl)ccc2Cl)cc1	61.5 to 62.5
CCC(=O)NC[C@H]1CN(c2ccc(C3CCS(=O)(=O)CC3)c(F)c2)C(=O)O1	200 to 201
FC(F)(F)COc1ccc(-c2nc3n(c2-c2ccc(OCC(F)(F)F)cc2)CCS3)cc1	163 to 164
CCOP(=O)(Cc1cccc2cccc(CP(=O)(OCC)OCC)c12)OCC	55 to 56
CCOCCc1cc(O)ccc1N	102
O=S1(=O)NCN(C2CC2)c2c(F)cc(F)c(F)c21	149 to 151
CN(C)C=Nc1nc2c(s1)C(=O)C(=CN(C)C)CC2	185 to 186
CC(C)CC(C#N)NC(=O)C(CC(C)C)NC(=O)c1ccc(Cn2ccnc2)cc1 (centres undefined)	100 to 103
COC(=O)c1ccc(OCCCOc2cc3c(cc2O)CCO3)cc1	133 to 135
O=S1(=O)c2cccc3cccc(c23)N1CC(Br)CN1CCN(c2ccc(F)cc2)CC1 (centres undefined)	102
CC(C)(C)C(=O)OCOC(=O)[C@H]1C[C@H](NC(=O)Cc2ccccc2)c2c(Cl)cc(Cl)cc2N1 (relative stereo)	162 to 163
O=c1[nH]c(-c2ccc(CCN3CCN(c4cccc(C(F)(F)F)c4)CC3)cc2)cs1	285 to 287
CC(C)(C)c1cc(C=[N+]([O-])C(C)(C)C)c(O)c(C(C)(C)C)c1	235
CCOC(=O)c1sc(I)nc1-c1ccccc1	104 to 106

Compound	melting point [°C]
CCOC(=O)c1ccc(OCCC2CN(c3ccc(SC)nn3)CCO2)cc1 (centres undefined)	111
CCOC(=O)Cc1c(C(=O)OCC)cnc2c(NC(=O)c3c(Cl)cccc3Cl)cccc12	159
O=C1c2ccccc2C2C(c3ccccc31)C2(F)F (centres undefined)	150
CN(C)SN(C)C(=O)ON=C1SCC(=O)NC1(C)C	165 to 167
CC1(c2ccc(C3(O)CCCCCC3)cc2)OCCO1	77 to 79
COC(=O)c1c2n(c(C)cc1=O)CCCC2	169 to 172
O=C(CCNC(=O)OCc1ccccc1)NC1OC(C(=O)O)CC1O (centres undefined)	195 to 198
COc1cc2c(cc1N1CCNCC1)N(C(=O)c1ccc(-c3ccc(-c4noc(C)n4)cc3C)cc1)CC2	153 to 155
Cn1c(=O)oc2cc([N+](=O)[O-])ccc21	183 to 185
O=C1CCCC(n2nc(-c3c(-c4ccccc4)nn4ccccc34)ccc2=O)C1 (centres undefined)	126 to 127
COC(=O)C1=C(CC(=O)N2CCN(C)CC2)NC(CS(=O)c2ccccc2Cl)=C(C(=O)OC)C1c1c(Cl)cccc1Cl (centres undefined)	180 to 181
CNC(=O)N1N=C(c2ccc(N)cc2)c2cc(Cl)c(Cl)cc2CC1C (centres undefined)	224 to 225
Cc1oc(-c2ccccc2)nc1COc1ccc(Cc2nc(-c3ccccc3)c(CCC(=O)O)o2)cc1	142 to 143
CCOC(=O)NN=C(CO)c1cccc(Cl)c1	109 to 110
COc1ccc(-c2cnc(NS(=O)(=O)c3ccc(C)cc3)nc2)cc1	220 to 223
Brc1cc(-c2c3ccccc3c(Br)c3sc4ccccc4c23)cc(Br)c1OCc1nnn[nH]1	243 to 245
COC(=O)/C=C/c1cc(-c2ccc(C)cc2)cs1	116 to 118
NC(=O)NCC#CCN1CCCC1	71 to 73
Cc1ncn(-c2nccc3[nH]c(=O)ccc23)c1C	256 to 258
CCN(CC)CCC1CCCN1CCNC(=O)N1c2ccccc2C(=O)Nc2cccnc21 (centres undefined)	127 to 128
CCOC(=O)c1cn(Cc2ccccc2)nc1N(Cc1ccccc1)C(=O)Nc1ccccc1	116 to 117
Cc1cc2ccccc2nc1C(=O)O	141 to 142
CC(C)Cn1c(CN2C(=O)c3ccccc3C2=O)c(-c2ccc(Cl)cc2)c2cc(OCc3ccccc3)ccc2c1=O	182 to 183
COCOc1cc(Cl)ccc1-c1cc(-c2cccc(C(=O)OC)c2)c(C#N)c(N)n1	159 to 160
Nc1cc(C(=O)Nc2ccccc2)ccc1OC(F)(F)F	160 to 162

Compound	melting point [°C]
O=C(Nc1ccc(C(=O)N2Cc3ccccc3Oc3ccccc32)c(Cl)c1)c1ccccc1-c1ccccc1	145 to 188
CC(=O)Nc1ccc(OCCOc2ccccc2)cc1[N+](=O)[O-]	104 to 106
CCS(=O)(=O)Nc1cc(-n2nc(C(F)F)n(C)c2=S)c(F)cc1C(N)=S	183
CN(C)S(=O)(=O)n1cc(S(=O)(=O)N2CCc3ccccc3C2)nc1C#N	143 to 144
CCC(Oc1ccc(C2CCOCC2)cc1)C(=O)O (centres undefined)	127
CCCCC(=O)Nc1c(C)c(C)c2c(c1C)C(c1ccc(C(C)C)cc1)CO2 (centres undefined)	128 to 129
CC(C)(C)OC(=O)CON=C(c1ccccc1)c1cc2ccncc2[nH]1	47 to 52
NC(=O)c1nnn(Cc2ccc(C(Cl)=C(Cl)Cl)cc2)c1N	200 to 203
CN1c2ccc(Cl)cc2C(c2ccccc2)=Nc2cccnc21	153 to 156
Cn1ncc(C=O)c1-c1ccoc1	70 to 71
COc1ccc2c(N)cccc2c1C(F)(F)F	120
CCOC(=O)c1cc2ccc([Si](C)(C)C)cc2n1Cc1cccc(F)c1	87 to 88
FC(F)(F)c1c[nH]c(-c2ccc(OCC3CO3)cc2)n1 (centres undefined)	152 to 154
CC(C)c1nc2ccccc2c(=O)n1NC(=O)C(C)c1ccccc1 (centres undefined)	48 to 55
COc1cc2c(cc1Nc1ncc(Cl)c(Nc3ccc(N4CCOCC4)cc3OC)n1)CCN(C[C@H](O)C(F)(F)F)CC2	95 to 102
CC(C)NCCCC(O)c1ccccc1-c1ccccc1 (centres undefined)	78 to 80
CCOC(=O)c1cnc2c(c(C)nn2-c2ccccn2)c1N	147 to 149
Cc1cc(N2CCc3ncccc3C2)nc(N2CCCC2)c1NC(=O)Cc1cc(F)cc(F)c1	203 to 206
CN1C(=O)CC[C@]2(C)c3ccc(C=Cc4cncc5ccccc45)cc3CC[C@@H]12	183 to 185
Cc1cc(C)c(N2C(=O)C(C)Cc3c(Cl)nc(C)nc32)c(C)c1 (centres undefined)	136 to 139
Cc1ccc(S(=O)(=O)OCC2Cc3cccc(-c4cc(Cl)cc(Cl)c4)c3O2)cc1 (centres undefined)	113 to 115
COc1ccc2c(c1)C(=O)C(CC=O)C2 (racemic)	59
Oc1ccc(O)c2c1CCCC2	213 to 215
CCCCCCOC(=O)CC[C@@H](NC(=O)[C@@H](NC(=O)OC(C)(C)C)C(C)C)C(N)=O	94 to 95
